Experimental data taken from ChEMBL document CHEMBL1135940, “2-Amino-4-[3'-hydroxyphenyl]-4-hydroxybutanoic acid; a potent inhibitor of rat and recombinant human kynureninase” (Bioorg Med Chem Lett, 2002).

Assays:
[1] = target: T1, Kynureninase (Homo sapiens, UniProt Q16719); assay: Tested for binding affinity against kynureninase enzyme from human
T1 sequence (Q16719 whole entry): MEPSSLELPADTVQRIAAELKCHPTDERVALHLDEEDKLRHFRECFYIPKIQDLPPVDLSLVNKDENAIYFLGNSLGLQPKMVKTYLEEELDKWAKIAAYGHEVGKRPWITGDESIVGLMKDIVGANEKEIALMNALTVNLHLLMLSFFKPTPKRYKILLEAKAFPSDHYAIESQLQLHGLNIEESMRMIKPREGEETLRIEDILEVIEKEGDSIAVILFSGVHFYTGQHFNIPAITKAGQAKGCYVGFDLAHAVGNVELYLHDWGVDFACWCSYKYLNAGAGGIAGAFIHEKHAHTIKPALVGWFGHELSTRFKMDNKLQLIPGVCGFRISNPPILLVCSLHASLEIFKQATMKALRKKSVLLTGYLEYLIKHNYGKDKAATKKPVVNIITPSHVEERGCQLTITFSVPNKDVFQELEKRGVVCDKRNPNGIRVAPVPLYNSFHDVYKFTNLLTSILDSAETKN

[2] = target: T2, Kynureninase (Rattus norvegicus, UniProt P70712); assay: Tested for binding affinity against kynureninase enzyme from rat
T2 sequence (P70712 whole entry): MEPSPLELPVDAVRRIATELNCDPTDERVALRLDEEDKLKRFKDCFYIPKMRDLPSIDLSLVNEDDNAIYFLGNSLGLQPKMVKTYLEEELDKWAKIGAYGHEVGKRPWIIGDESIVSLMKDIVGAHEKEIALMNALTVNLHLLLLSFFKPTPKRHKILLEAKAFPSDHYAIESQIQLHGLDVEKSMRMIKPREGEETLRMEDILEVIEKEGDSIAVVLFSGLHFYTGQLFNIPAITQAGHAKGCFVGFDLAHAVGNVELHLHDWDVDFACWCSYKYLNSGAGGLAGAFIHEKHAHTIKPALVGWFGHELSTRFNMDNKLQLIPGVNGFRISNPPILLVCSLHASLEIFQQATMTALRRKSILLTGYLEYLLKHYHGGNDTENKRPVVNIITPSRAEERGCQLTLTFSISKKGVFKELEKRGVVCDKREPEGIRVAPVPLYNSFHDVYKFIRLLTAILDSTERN

Ki [1]: 100 nM
Ki [2]: 130 nM
Compound: NC(CC(O)c1cccc(O)c1)C(=O)O (configuration not stated)
